# From ChEMBL document CHEMBL1201862, “PubChem BioAssay data set” (2004)
# “And” between values parts separate entries of the source, which are not always exact repeats. Equal entries are not always repeated.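 Protocol summary: plate cells (96-well), add compound at 5 concentrations, incubate 48 h, interpolate endpoints linearly. At the GI50, growth is halved.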 The source made the active and inactive calls. Cut-off read from the data, not from the text of the source: active = GI50 up to about 1.1 µM and inactive = higher.
# Key:
# Assay in all cases: growth of human tumour cells (NCI), 48 h
# 786-0 = system: 786-0
# CCRF-CEM = system: CCRF-CEM
# COLO 205 = system: COLO 205
# DMS-114 = system: DMS-114
# DU-145 = system: DU-145
# EKVX = system: EKVX
# HCT-15 = system: HCT-15
# HL-60 = system: HL-60
# HOP-18 = system: HOP-18
# HOP-62 = system: HOP-62
# HOP-92 = system: HOP-92
# Hs-578T = system: Hs-578T
# IGROV-1 = system: IGROV-1
# K562 = system: K562
# KM-20L2 = system: KM-20L2
# M14 = system: M14
# MCF7 = system: MCF7
# MOLT-4 = system: MOLT-4
# NCI/ADR-RES = system: NCI/ADR-RES
# OVCAR-8 = system: OVCAR-8
# PC-3 = system: PC-3
# RPMI-8226 = system: RPMI-8226
# SF-268 = system: SF-268
# SF-295 = system: SF-295
# SF-539 = system: SF-539
# SK-MEL-2 = system: SK-MEL-2
# SK-OV-3 = system: SK-OV-3
# SNB-19 = system: SNB-19
# SNB-75 = system: SNB-75
# SNB-78 = system: SNB-78
# SR = system: SR
# U-251 = system: U-251
# UACC-257 = system: UACC-257
# UACC-62 = system: UACC-62
# A498 = system: A498
# A549 = system: A549
# ACHN = system: ACHN
# CAKI-1 = system: CAKI-1
# DLD-1 = system: DLD-1
# DMS-273 = system: DMS-273
# HCC 2998 = system: HCC 2998
# HCT-116 = system: HCT-116
# HT-29 = system: HT-29
# KM12 = system: KM12
# LOX IMVI = system: LOX IMVI
# LXFL 529 = system: LXFL 529
# M19-MEL = system: M19-MEL
# Malme-3M = system: Malme-3M
# NCI-H226 = system: NCI-H226
# NCI-H460 = system: NCI-H460
# NCI-H522 = system: NCI-H522
# OVCAR-3 = system: OVCAR-3
# OVCAR-4 = system: OVCAR-4
# OVCAR-5 = system: OVCAR-5
# RXF 393 = system: RXF 393
# SK-MEL-28 = system: SK-MEL-28
# SK-MEL-5 = system: SK-MEL-5
# SN12C = system: SN12C
# SW-620 = system: SW-620
# TK-10 = system: TK-10
# UO-31 = system: UO-31
# NCI-H23 = system: NCI-H23
compound,measurement,setting,value
Cc1ccc(C)c(NC(=O)CC2Sc3ccccc3NC2=O)c1 (configuration not stated),GI50,786-0,18.3 µM (inactive) and 25.2 µM (inactive)
same,GI50,CCRF-CEM,> 56.2 µM (inactive) and > 86.3 µM (inactive)
same,GI50,COLO 205,> 100 µM (inactive)
same,GI50,DMS-114,49.5 µM (inactive) and 30.3 µM (inactive)
same,GI50,DU-145,> 100 µM (inactive) and > 74.1 µM (inactive)
same,GI50,EKVX,75.7 µM (inactive) and > 70.5 µM (inactive)
same,GI50,HCT-15,38.7 µM and 61 µM
same,GI50,HL-60,> 96.4 µM (inactive) and > 56.2 µM (inactive)
same,GI50,HOP-18,25.1 µM (inactive) and 16.7 µM (inactive)
same,GI50,HOP-62,20.7 µM (inactive) and 17.6 µM (inactive)
same,GI50,HOP-92,19.1 µM (inactive) and 11.9 µM (inactive)
same,GI50,Hs-578T,22.6 µM (inactive)
same,GI50,IGROV-1,20.8 µM (inactive) and 35.7 µM (inactive)
same,GI50,K562,> 56.2 µM (inactive) and 68.5 µM (inactive)
same,GI50,KM-20L2,> 100 µM (inactive) and > 96.8 µM (inactive)
same,GI50,M14,51.3 µM (inactive)
same,GI50,MCF7,> 95.5 µM (inactive) and 62.4 µM (inactive)
same,GI50,MOLT-4,> 56.2 µM (inactive) and > 77.3 µM (inactive)
same,GI50,NCI/ADR-RES,> 49 µM (inactive)
same,GI50,OVCAR-8,15.5 µM (inactive) and 18.6 µM (inactive)
same,GI50,PC-3,> 89.7 µM (inactive) and 79.3 µM (inactive)
same,GI50,RPMI-8226,> 100 µM (inactive) and 53 µM (inactive)
same,GI50,SF-268,14.7 µM (inactive) and 26.2 µM (inactive)
same,GI50,SF-295,27.9 µM (inactive) and 50.1 µM (inactive)
same,GI50,SF-539,33.7 µM (inactive) and 29.4 µM (inactive)
same,GI50,SK-MEL-2,30.1 µM (inactive) and 50.8 µM (inactive)
same,GI50,SK-OV-3,21.2 µM (inactive) and 22.7 µM (inactive)
same,GI50,SNB-19,19.8 µM (inactive) and 32.7 µM (inactive)
same,GI50,SNB-75,10.7 µM (inactive) and 10.4 µM (inactive)
same,GI50,SNB-78,14.5 µM (inactive) and 23.1 µM (inactive)
same,GI50,SR,> 46.5 µM (inactive) and 27.8 µM (inactive)
same,GI50,U-251,15 µM (inactive) and 27 µM (inactive)
same,GI50,UACC-257,34.2 µM (inactive) and > 67 µM (inactive)
same,GI50,UACC-62,68.9 µM (inactive) and > 85.5 µM (inactive)
O=C1C=CC2(CCCCCCC2=O)CC1 (configuration not stated),GI50,786-0,> 100 µM (inactive)
same,GI50,A498,> 100 µM (inactive)
same,GI50,A549,> 100 µM (inactive)
same,GI50,ACHN,> 100 µM (inactive)
same,GI50,CAKI-1,> 100 µM (inactive)
same,GI50,CCRF-CEM,> 100 µM (inactive)
same,GI50,COLO 205,57 µM (inactive)
same,GI50,DLD-1,> 100 µM (inactive)
same,GI50,DMS-273,> 100 µM (inactive)
same,GI50,EKVX,> 100 µM (inactive)
same,GI50,HCC 2998,> 100 µM (inactive)
same,GI50,HCT-116,> 100 µM (inactive)
same,GI50,HCT-15,> 100 µM
same,GI50,HL-60,> 100 µM (inactive)
same,GI50,HOP-18,> 100 µM (inactive)
same,GI50,HOP-62,> 100 µM (inactive)
same,GI50,HOP-92,> 100 µM (inactive)
same,GI50,HT-29,> 100 µM (inactive)
same,GI50,IGROV-1,> 100 µM (inactive)
same,GI50,KM-20L2,> 100 µM (inactive)
same,GI50,KM12,> 100 µM (inactive)
same,GI50,LOX IMVI,44.9 µM (inactive)
same,GI50,LXFL 529,> 100 µM (inactive)
same,GI50,M14,> 100 µM (inactive)
same,GI50,M19-MEL,> 100 µM (inactive)
same,GI50,MOLT-4,> 100 µM (inactive)
same,GI50,Malme-3M,> 100 µM (inactive)
same,GI50,NCI-H226,42.6 µM (inactive)
same,GI50,NCI-H460,> 100 µM (inactive)
same,GI50,NCI-H522,> 100 µM (inactive)
same,GI50,OVCAR-3,> 100 µM (inactive)
same,GI50,OVCAR-4,> 100 µM (inactive)
same,GI50,OVCAR-5,> 100 µM (inactive)
same,GI50,OVCAR-8,> 100 µM (inactive)
same,GI50,RPMI-8226,> 100 µM (inactive)
same,GI50,RXF 393,> 100 µM (inactive)
same,GI50,SF-268,> 100 µM (inactive)
same,GI50,SF-295,> 100 µM (inactive)
same,GI50,SF-539,> 100 µM (inactive)
same,GI50,SK-MEL-28,> 100 µM (inactive)
same,GI50,SK-MEL-5,> 100 µM (inactive)
same,GI50,SK-OV-3,> 100 µM (inactive)
same,GI50,SN12C,> 100 µM (inactive)
same,GI50,SNB-19,> 100 µM (inactive)
same,GI50,SNB-75,57.9 µM (inactive)
same,GI50,SNB-78,> 100 µM (inactive)
same,GI50,SR,> 100 µM (inactive)
same,GI50,SW-620,> 100 µM (inactive)
same,GI50,TK-10,> 100 µM (inactive)
same,GI50,U-251,> 100 µM (inactive)
same,GI50,UACC-257,> 100 µM (inactive)
same,GI50,UACC-62,> 100 µM (inactive)
same,GI50,UO-31,> 100 µM (inactive)
COc1cc(CNc2cnc3ccc(N)cc3n2)cc(OC)c1OC,GI50,786-0,> 100 µM (inactive)
same,GI50,A498,> 100 µM (inactive)
same,GI50,A549,> 100 µM (inactive)
same,GI50,ACHN,> 100 µM (inactive)
same,GI50,CAKI-1,> 100 µM (inactive)
same,GI50,CCRF-CEM,> 100 µM (inactive)
same,GI50,COLO 205,> 100 µM (inactive)
same,GI50,DMS-114,> 100 µM (inactive)
same,GI50,DMS-273,99.8 µM (inactive)
same,GI50,EKVX,> 100 µM (inactive)
same,GI50,HCC 2998,72.4 µM (inactive)
same,GI50,HCT-116,> 100 µM (inactive)
same,GI50,HCT-15,> 100 µM
same,GI50,HL-60,36.3 µM (inactive)
same,GI50,HOP-18,> 100 µM (inactive)
same,GI50,HOP-62,> 100 µM (inactive)
same,GI50,HOP-92,> 100 µM (inactive)
same,GI50,HT-29,> 100 µM (inactive)
same,GI50,IGROV-1,> 100 µM (inactive)
same,GI50,K562,36.3 µM (inactive)
same,GI50,KM-20L2,> 100 µM (inactive)
same,GI50,KM12,> 100 µM (inactive)
same,GI50,LOX IMVI,> 100 µM (inactive)
same,GI50,LXFL 529,> 100 µM (inactive)
same,GI50,M14,> 100 µM (inactive)
same,GI50,M19-MEL,66.8 µM (inactive)
same,GI50,MOLT-4,> 100 µM (inactive)
same,GI50,Malme-3M,> 100 µM (inactive)
same,GI50,NCI-H226,> 100 µM (inactive)
same,GI50,NCI-H23,> 100 µM (inactive)
same,GI50,NCI-H460,> 100 µM (inactive)
same,GI50,NCI-H522,> 100 µM (inactive)
same,GI50,OVCAR-3,> 100 µM (inactive)
same,GI50,OVCAR-4,> 100 µM (inactive)
same,GI50,OVCAR-5,> 100 µM (inactive)
same,GI50,OVCAR-8,> 100 µM (inactive)
same,GI50,RPMI-8226,91.4 µM (inactive)
same,GI50,RXF 393,> 100 µM (inactive)
same,GI50,SF-268,> 100 µM (inactive)
same,GI50,SF-295,> 100 µM (inactive)
same,GI50,SF-539,> 100 µM (inactive)
same,GI50,SK-MEL-28,> 100 µM (inactive)
same,GI50,SK-MEL-2,> 100 µM (inactive)
same,GI50,SK-MEL-5,71.3 µM (inactive)
same,GI50,SK-OV-3,> 100 µM (inactive)
same,GI50,SN12C,> 100 µM (inactive)
same,GI50,SNB-19,> 100 µM (inactive)
same,GI50,SNB-75,> 100 µM (inactive)
same,GI50,SNB-78,> 100 µM (inactive)
same,GI50,SW-620,45.1 µM (inactive)
same,GI50,TK-10,> 100 µM (inactive)
same,GI50,U-251,> 100 µM (inactive)
same,GI50,UACC-257,> 100 µM (inactive)
same,GI50,UACC-62,> 100 µM (inactive)
same,GI50,UO-31,> 100 µM (inactive)
